According to US11540517B2, “Active compound combinations having insecticidal/acaricidal properties” (Bayer Aktiengesellschaft, priority 2017, dated 2023):

Tests used:
Type in all cases: in vivo
Tetranychus urticae = Tetranychus urticae - spray test OP-resistant; conditions: mortality
Experimental: (§1) The expected efficacy of a given combination of two compounds is calculated as follows (see Colby, S. R., “Calculating Synergistic and antagonistic Responses of Herbicide Combinations”, Weeds 15, pp. 20-22, 1967): • If • X is the efficacy expressed in % mortality of the untreated control for test compound A at a concentration of m ppm respectively m g/ha, • Y is the efficacy expressed in % mortality of the untreated control for test compound B at a concentration of n ppm respectively n g/ha, • E is the efficacy expressed in % mortality of the untreated control using the mixture of A and B at m and n ppm respectively m and n g/ha, • then is
(§2) [formula] • If the observed insecticidal efficacy of the combination is higher than the one calculated as “E”, then the combination of the two compounds is more than additive, i.e. there is a synergistic effect.
Tetranyechus urticae—Spray Test OP-Resistant
Solvent: 78.0 parts by weight acetone
1.5 parts by weight dimethylformamide
Emulsifier: alkylarylpolyglycol ether
(§3) To produce a suitable preparation of active compound, 1 part by weight of active compound is mixed with the stated amount of solvents and is diluted with water, containing an emulsifier concentration of 1000 ppm, to the desired concentration. Further test concentrations are prepared by dilution with emulsifier containing water.
French bean (Phaseolus vulgaris) leaf disks infected with all instars of the two spotted spidermite (Tetranychus urticae), are sprayed with a preparation of the active ingredient of the desired concentration.
After the specified period of time, mortality in % is determined. 100% means all spider mites have been killed and 0% means none of the spider mites have been killed. The mortality values determined thus are recalculated using the Colby-formula (see above).

Aphis gossypii = Aphis gossypii - spray test; conditions: 0.4 ppm, mortality
Experimental: as §1, §2
Aphis gossypii—Spray Test
(§4) Solvent: 7 parts by weight of dimethylformamide
(§5) Emulsifier: alkylaryl polyglycol ether
To produce a suitable preparation of active compound, 1 part by weight of active compound is mixed with the stated amount of solvent and is diluted with water, containing an emulsifier concentration of 1000 ppm, to the desired concentration. […]
After the specified period of time the mortality in % is determined. […] The mortality values determined thus are recalculated using the Colby-formula (see above).

Phaedon cochleariae = Phaedon cochleariae - spray test; conditions: mortality
Experimental: as §1, §2
Phaedon cochleariae—Spray Test
as §4, §5
as §3, with “solvent” for “solvents”
After the specified period of time mortality in % is determined. 100% means all the beetle larvae have been killed and 0% means none of the beetle larvae have been killed. The mortality values determined thus are recalculated using the Colby-formula (see above).

Spodoptera frugiperda = Spodoptera frugiperda - spray test; conditions: mortality
Experimental: as §1, §2
Spodoptera frugiperda—Spray Test
as §4, §5
as §3, with “solvent” for “solvents”
Cotton leaves (Gossypium hirsutum) are treated by being sprayed with the preparation of the active compound of the desired concentration and are infested with caterpillars of the fall army worm (Spodoptera frugiperda).
After the specified period of time mortality in % is determined. 100% means all the caterpillars have been killed and 0% means none of the caterpillars have been killed. The mortality values determined thus are recalculated using the Colby-formula (see above).

CN1COCN(Cc2cnc(Cl)s2)C1=N[N+](=O)[O-] (mixture of isomers) [Thiametoxam, (EZ)-3-(2-chloro-1,3-thiazol-5-ylmethyl)-5-methyl-1,3,5-oxadiazinan-4-ylidene(nitro)amine]
Efficacy in % after 2 days (Tetranychus urticae; 0.1 g ai/ha): 0% | Efficacy in % after 2 days (Tetranychus urticae; 0.4 g ai/ha): 0% | Efficacy in % after 2 days (Tetranychus urticae; 1.6 g ai/ha): 0%

O=[N+]([O-])N=C1NCCN1Cc1cnc(Cl)s1 [Imidaclothiz, (EZ)-1-(2-chloro-1,3-thiazol-5-ylmethyl)-N-nitroimidazolidin-2-ylideneamine]
Efficacy in % after 2 days (Tetranychus urticae; 0.8 g ai/ha): 0% | Efficacy in % after 2 days (Tetranychus urticae; 3.2 g ai/ha): 0% | Efficacy in % after 2 days (Tetranychus urticae; 12.8 g ai/ha): 0% | Efficacy in % after 6 days (Aphis gossypii): 20%

O=C1C=C(N(Cc2ccc(Cl)nc2)CC(F)F)CO1 [Flupyradifurone, 4-[(6-chloro-3-pyridylmethyl)(2,2-difluoroethyl)amino]furan-2(5H)-one]
Efficacy in % after 2 days (Tetranychus urticae; 0.4 g ai/ha): 0% | Efficacy in % after 2 days (Tetranychus urticae; 1.6 g ai/ha): 0% | Efficacy in % after 2 days (Tetranychus urticae; 6.4 g ai/ha): 0%

CN/C(=N\[N+](=O)[O-])NCc1cnc(Cl)s1 [Clothianidin, (E)-1-(2-chloro-1,3-thiazol-5-ylmethyl)-3-methyl-2-nitroguanidine]
Efficacy in % after 1 day (Phaedon cochleariae; 2 ppm): 10% | Efficacy in % after 2 days (Phaedon cochleariae; 2 ppm): 10% | Efficacy in % after 3 days (Phaedon cochleariae; 2 ppm): 25% | Efficacy in % after 3 days (Phaedon cochleariae; 4 ppm): 60% | Efficacy in % after 1 day (Phaedon cochleariae; 8 ppm): 45% | Efficacy in % after 2 days (Phaedon cochleariae; 8 ppm): 55% | Efficacy in % after 3 days (Phaedon cochleariae; 8 ppm): 75% | Efficacy in % after 3 days (Spodoptera frugiperda; 24 ppm): 40% | Efficacy in % after 1 day (Spodoptera frugiperda; 48 ppm): 10%

CNC(=N[N+](=O)[O-])NCC1CCOC1 (racemic) [Dinotefuran, (EZ)-(RS)-1-methyl-2-nitro-3-(tetrahydro-3-furylmethyl)guanidine]
Efficacy in % after 6 days (Tetranychus urticae; 0.2 g ai/ha, after 6 days): 0%

Cc1cc(F)c(N=C2SCC(=O)N2CC(F)(F)F)cc1[S+]([O-])CC(F)(F)F (centres unmarked) [Cpd of formula (I)]
Efficacy in % after 1 day (Phaedon cochleariae; 1 ppm): 0% | Efficacy in % after 2 days (Phaedon cochleariae; 1 ppm): 0% | Efficacy in % after 3 days (Phaedon cochleariae; 1 ppm): 0% | Efficacy in % after 3 days (Phaedon cochleariae; 2 ppm): 0% | Efficacy in % after 1 day (Phaedon cochleariae; 4 ppm): 0% | Efficacy in % after 2 days (Phaedon cochleariae; 4 ppm): 10% | Efficacy in % after 3 days (Phaedon cochleariae; 4 ppm): 10% | Efficacy in % after 3 days (Spodoptera frugiperda; 2.4 ppm): 0% | Efficacy in % after 1 day (Spodoptera frugiperda; 4.8 ppm): 0% | Efficacy in % after 2 days (Spodoptera frugiperda; 4.8 ppm): 0% | Efficacy in % after 3 days (Spodoptera frugiperda; 4.8 ppm): 0% | Efficacy in % after 6 days (Spodoptera frugiperda; 4.8 ppm): 0% | Efficacy in % after 1 day (Spodoptera frugiperda; 9.6 ppm): 0% | Efficacy in % after 2 days (Spodoptera frugiperda; 9.6 ppm): 0% | Efficacy in % after 3 days (Spodoptera frugiperda; 9.6 ppm): 0% | Efficacy in % after 6 days (Spodoptera frugiperda; 9.6 ppm): 0% | Efficacy in % after 2 days (Tetranychus urticae; 0.1 g ai/ha): 0%

C/C(=N\C#N)N(C)Cc1ccc(Cl)nc1 [Acetamiprid, (E)-N^1-[(6-chloro-3-pyridyl)methyl]-N^2-cyano-N-methylacetamidine]
Efficacy in % after 2 days (Spodoptera frugiperda; 48 ppm): 0% | Efficacy in % after 3 days (Spodoptera frugiperda; 48 ppm): 0% | Efficacy in % after 6 days (Spodoptera frugiperda; 48 ppm): 10% | Efficacy in % after 1 day (Spodoptera frugiperda; 96 ppm): 10% | Efficacy in % after 2 days (Spodoptera frugiperda; 96 ppm): 20% | Efficacy in % after 3 days (Spodoptera frugiperda; 96 ppm): 40% | Efficacy in % after 6 days (Spodoptera frugiperda; 96 ppm): 50% | Efficacy in % after 2 days (Tetranychus urticae; 0.4 g ai/ha): 0% | Efficacy in % after 2 days (Tetranychus urticae; 1.6 g ai/ha): 0% | Efficacy in % after 2 days (Tetranychus urticae; 6.4 g ai/ha): 0%
